Where “and” joins values, the source holds several entries; their conditions need not be identical. Identical values can stand only once. Inconclusive results are not listed.
System: BDF1 mice, s.c. Lewis lung carcinoma, T/C %
Experiment: NCI In Vivo Anticancer Drug Screen. Data for tumor model Lewis Lung Carcinoma (subcutaneous) in B6D2F1 (BDF1) mice
In short: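 Tumor-bearing mice were treated with test compound, and either survival or tumor size was recorded. Values are the treated-group measurement divided by that of the vehicle-treated control group.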

[1] = endpoint: median survival time, dose: 1.25 mg/kg/injection, schedule: Q01DX009 (ip), vehicle: Klucel (hydroxypropylcellulose) (HPC), higher = longer survival
[2] = endpoint: median survival time, dose: 2.5 mg/kg/injection, schedule: Q01DX009 (ip), vehicle: Klucel (hydroxypropylcellulose) (HPC), higher = longer survival
[3] = endpoint: median survival time, dose: 5.0 mg/kg/injection, schedule: Q01DX009 (ip), vehicle: Klucel (hydroxypropylcellulose) (HPC), higher = longer survival

For `COc1ccc(-c2oc3ccc(C)cc3c(=O)c2O)cc1`, the T/C (endpoint: mean tumor weight, dose: 1.9 mg/kg/injection, schedule: Q01DX011 (ip), vehicle: saline, higher = larger tumour) was 91 % of control, the T/C (endpoint: mean tumor weight, dose: 3.9 mg/kg/injection, schedule: Q01DX011 (ip), vehicle: saline, higher = larger tumour) was 100 % of control and the T/C (endpoint: mean tumor weight, dose: 7.8 mg/kg/injection, schedule: Q01DX011 (ip), vehicle: saline, higher = larger tumour) was 80 % of control. The T/C (endpoint: mean tumor weight, dose: 15.6 mg/kg/injection, schedule: Q01DX010 (ip), vehicle: saline, higher = larger tumour) was 71 % of control, the T/C (endpoint: mean tumor weight, dose: 15.6 mg/kg/injection, schedule: Q01DX011 (ip), vehicle: saline, higher = larger tumour) was 67 % of control and the T/C (endpoint: mean tumor weight, dose: 31.3 mg/kg/injection, schedule: Q01DX010 (ip), vehicle: saline, higher = larger tumour) was 82 % of control. For the same compound, the T/C (endpoint: mean tumor weight, dose: 62.5 mg/kg/injection, schedule: Q01DX010 (ip), vehicle: saline, higher = larger tumour) was 81 % of control and the T/C (endpoint: mean tumor weight, dose: 125.0 mg/kg/injection, schedule: Q01DX010 (ip), vehicle: saline, higher = larger tumour) was 84 % of control.
For `OC(CCl)CN1CC[N+]2(CC1)CC[N+]1(CCN(CC(O)CCl)CC1)CC2` (stereo not given), the T/C (endpoint: median survival time, dose: 40.0 mg/kg/injection, schedule: Q01DX009 (ip), vehicle: saline, higher = longer survival) was 107 % of control and 112 % of control, the T/C (endpoint: median survival time, dose: 80.0 mg/kg/injection, schedule: Q01DX009 (ip), vehicle: saline, higher = longer survival) was 114 % of control and 121 % of control and the T/C (endpoint: median survival time, dose: 160.0 mg/kg/injection, schedule: Q01DX009 (ip), vehicle: saline, higher = longer survival) was 120 % of control. For the same compound, the T/C (endpoint: median survival time, dose: 320.0 mg/kg/injection, schedule: Q01DX009 (ip), vehicle: saline, higher = longer survival) was 150 % of control and 157 % of control.
`O=C(CP(=O)(O)O)NC(CC(=O)OCc1ccccc1)C(=O)OCc1ccccc1` (stereo not given) was tested, and the T/C (endpoint: median survival time, dose: 50.0 mg/kg/injection, schedule: Q01DX004 (ip), vehicle: saline, higher = longer survival) was 114 % of control and 120 % of control, the T/C (endpoint: median survival time, dose: 100.0 mg/kg/injection, schedule: Q01DX004 (ip), vehicle: saline, higher = longer survival) was 120 % of control and 118 % of control and the T/C (endpoint: median survival time, dose: 200.0 mg/kg/injection, schedule: Q01DX004 (ip), vehicle: saline, higher = longer survival) was 109 % of control. The T/C (endpoint: median survival time, dose: 400.0 mg/kg/injection, schedule: Q01DX004 (ip), vehicle: saline, higher = longer survival) was 109 % of control and the T/C (endpoint: median survival time, dose: 800.0 mg/kg/injection, schedule: Q01DX004 (ip), vehicle: saline, higher = longer survival) was 116 % of control.
In the case of `COC(=O)[C@@H]1[C@@H](O)[C@H](OC(=O)c2cc(OC)c(OC)c(OC)c2)C[C@@H]2CN3CCc4c([nH]c5ccccc45)[C@H]3C[C@@H]21`, the T/C [1] is reported as 108 % of control, the T/C [2] is reported as 122 % of control and the T/C [3] is reported as 88 % of control.
With `COc1c(Cl)cc2c(c1OC)N(C)C1N3C(=O)C4(C)SSC3(C(=O)N4C)C(O)C21O` (stereo not given) the T/C (endpoint: median survival time, dose: 0.12 mg/kg/injection, schedule: Q01DX009 (ip), vehicle: Klucel (hydroxypropylcellulose) (HPC), higher = longer survival) was 96 % of control, the T/C (endpoint: median survival time, dose: 0.25 mg/kg/injection, schedule: Q01DX009 (ip), vehicle: Klucel (hydroxypropylcellulose) (HPC), higher = longer survival) was 94 % of control and the T/C (endpoint: median survival time, dose: 0.5 mg/kg/injection, schedule: Q01DX009 (ip), vehicle: Klucel (hydroxypropylcellulose) (HPC), higher = longer survival) was 96 % of control.
`Nc1nc(SCc2ccccc2Cl)c2ncn(C3OC(CO)C(O)C3O)c2n1` (stereo not given) was tested, and the T/C (endpoint: mean tumor weight, dose: 6.3 mg/kg/injection, schedule: Q01DX011 (ip), vehicle: other, higher = larger tumour) was 56 % of control, the T/C (endpoint: mean tumor weight, dose: 12.5 mg/kg/injection, schedule: Q01DX011 (ip), vehicle: other, higher = larger tumour) was 55 % of control and the T/C (endpoint: mean tumor weight, dose: 25.0 mg/kg/injection, schedule: Q01DX011 (ip), vehicle: other, higher = larger tumour) was 49 % of control. The T/C (endpoint: mean tumor weight, dose: 50.0 mg/kg/injection, schedule: Q01DX011 (ip), vehicle: other, higher = larger tumour) was 28 % of control.
`COc1cc2ccc3c4cc5c(cc4c[n+](C)c3c2cc1OC)OCO5` was tested, and the T/C [1] was 108 % of control, the T/C [2] was 92 % of control and the T/C [3] was 102 % of control. The T/C (endpoint: median survival time, dose: 10.0 mg/kg/injection, schedule: Q01DX009 (ip), vehicle: Klucel (hydroxypropylcellulose) (HPC), higher = longer survival) was 99 % of control.
For `COc1cc(C[C@H]2c3cc(OC)c(OC)cc3CCN2C)c(Oc2cc3c(cc2OC)-c2c(OC)c(OC)cc4c2[C@H](C3)N(C)CC4)cc1OC`, the T/C (endpoint: mean tumor weight, dose: 50.0 mg/kg/injection, schedule: Q01DX011 (ip), vehicle: carboxymethylcellulose (CMC), higher = larger tumour) was 49 % of control and the T/C (endpoint: mean tumor weight, dose: 100.0 mg/kg/injection, schedule: Q01DX011 (ip), vehicle: carboxymethylcellulose (CMC), higher = larger tumour) was 26 % of control.
For `Cc1ccc(NC(=O)N(CCCl)N=O)cc1NC(=O)N(CCCl)N=O`, the T/C (endpoint: median survival time, dose: 3.12 mg/kg/injection, schedule: Q01DX009 (ip), vehicle: other, higher = longer survival) was 93 % of control and the T/C (endpoint: median survival time, dose: 6.25 mg/kg/injection, schedule: Q01DX009 (ip), vehicle: other, higher = longer survival) was 87 % of control.

Reference: PubChem BioAssay AID270 (DTP/NCI, 2004)
